Assay results taken from EP0423818B1, “Arylsulfatase” (Bristol-Myers Squibb Company, priority 1989, dated 1991).

test system: sulfatase of the invention; assay: Substrate specificity: etoposide derivatives incubated with the enzyme, TLC analysis; assay type: biochemical, Streptomyces sp. T109-3; settings: substrate 50 µl, 1 mg/ml; enzyme 0.6 u; 37°C for 30 minutes; silica gel TLC
Procedure: (h) Substrate specificity. Four etoposide derivatives were tested as substrate for the sulfatase of the invention. The substrates are: etoposide 4'-sulfate (III), 2",3"-di-O-acetyl-etoposide-4'-sulfate (IV), etoposide 2"-sulfate (V), and etoposide 3"-sulfate (VI). The substrate (50 µl, 1 mg/ml, MeOH:H2O = 1:1, pH 9.0) and the enzyme (50 µl, 0.6 u, 50 mM Tris-HCl, pH 7.5) were mixed and incubated at 37°C for 30 minutes. The mixture was then analyzed on a silica gel TLC plate using a solvent system consisting of chloroform-methanol (10:1 v/v).

| Molecule | substrate for the enzyme |
| --- | --- |
| COc1cc([C@@H]2c3cc4c(cc3[C@@H](O[C@@H]3O[C@@H]5CO[C@@H](C)O[C@H]5[C@H](O)[C@H]3O)[C@H]3COC(=O)[C@H]23)OCO4)cc(OC)c1OS(=O)(=O)O [(III), etoposide 4'-sulfate] | are not |
| COc1cc([C@@H]2c3cc4c(cc3[C@@H](O[C@@H]3O[C@@H]5CO[C@@H](C)O[C@H]5[C@H](OC(C)=O)[C@H]3OC(C)=O)[C@H]3COC(=O)[C@H]23)OCO4)cc(OC)c1OS(=O)(=O)O [(IV), 2",3"-di-O-acetyl-etoposide-4'-sulfate] | are not |

test system: Es-2 sulfatase; assay: Effect of enzyme inhibitors on sulfatase activity (protocol as for ions); assay type: biochemical, Streptomyces sp. T109-3; settings: 1000 µM
Procedure: (a) Optimum pH. The enzyme solution (0.6 u in 50 µl of 50 mM Tris-HCl, pH 7.5) was mixed with 100 µl each of the following buffers: 500 mM sodium acetate (pH 4.0-5.5), 500 mM Tris-maleate (pH 5.5-7.7), 500 mM Tris-HCl (pH 7.5-9.0), and 500 mM glycine-NaOH (pH 9.0-10.0). The substrate, p-nitrophenylsulfate, was similarly dissolved in each of the above buffers (1 mg/ml). A sample (150 µl) from the enzyme solution is mixed with the substrate (50 µl) in the same buffer, and the mixture was incubated for 30 minutes at 37°C. The enzyme activity in each buffer was determined spectrophotometrically by UV at 415 nm. […] (b) pH stability. The stock enzyme solution was dialyzed against water to remove salts. The enzyme solution was adjusted to 0.6 u/10 µl with Tris-HCl buffer (pH 7.5). This solution (10 µl) was mixed with 40 µl each of the buffer listed in (a) and incubated for 30 minutes at 30°C. The enzyme sample (50 µl) was mixed with 100 µl of 500 mM Tris-HCl (pH 9.0) and 50 µl of substrate in water (1mg/ml), and the mixture was incubated at 37°C for 30 minutes to determine the residual enzyme activity. […] (c) Optimum temperature. Enzyme (0.6 u) in 150 µl of 50 mM Tris-HCl (pH 9.0) were incubated with p-nitrophenylsulfate (1 mg/ml, 50 µl) in the same buffer (pH 9.0) for 30 minutes at various temperatures (200 µl each). […] (d) Temperature stability. Enzyme preparations (0.6 u) in 50 mM Tris-HCl (150 µl, pH 9.0) were incubated for 15 minutes at various temperatures and then cooled in an ice bath. p-Nitrophenylsulfate (1 mg/ml, 50 µl) was added to the enzyme solution, and the mixture was incubated for 30 minutes at 37°C. […] (e) Effect of ions. Enzyme (0.6 u), p-nitrophenyl sulfate 4 mM, and ion 1 mM were dissolved in 200 µl of Tris-HCl (50 mM). The solution was incubated for 30 minutes at 37°C. p-Nitrophenol released was spectrophotometrically assayed by UV at 415 nm.
(f) Effect of enzyme inhibitors. The protocol used in (e) was followed with the exception that 1 mM of an enzyme inhibitor was used instead of a metal ion.

| Molecule | % Inhibit. |
| --- | --- |
| O=C(O)CN(CCN(CC(=O)O)CC(=O)O)CC(=O)O [EDTA] | 69% |
| O=C(O)CI [Iodoacetic acid] | 96% |

same assay, conditions: 1 mM of an enzyme inhibitor; p-nitrophenyl sulfate 4 mM; 30 minutes at 37°C

| Molecule | % Inhibit. |
| --- | --- |
| OCCS [2-Mercaptoethanol] | 22% |
| N[C@@H](CS)C(=O)O [Cysteine] | 18% |
| O[C@H](CS)[C@H](O)CS (racemic) [Dithiothreitol] | 34% |
| O=S(=O)(F)Cc1ccccc1 [Phenylmethanesulfonyl fluoride] | 81% |
| O=C(O)CC(O)(CC(=O)O)C(=O)O [Citrate] | 87% |
| c1cnc2c(c1)ccc1cccnc12 [1,10-Phenanthroline] | 60% |
| c1c[nH]cn1 [Imidazole] | 14% |
| O=C(O)c1cc[c]([Hg][Cl])cc1 [p-Chloromercuribenzoic acid] | 78% |
| CCN1C(=O)C=CC1=O [N-Ethylmaleimide] | 35% |

test system: Es-2 sulfatase; assay: Effect of metal ions on sulfatase activity (p-nitrophenyl sulfate hydrolysis, UV at 415 nm); assay type: biochemical, Streptomyces sp. T109-3; settings: ion 1 mM; enzyme 0.6 u; p-nitrophenyl sulfate 4 mM; Tris-HCl 50 mM; 30 minutes at 37°C
Procedure: Sulfatase activity during purification is monitored by determining the conversion of p-nitrophenylsulfate into p-nitrophenol using spectrophotometric means. Specifically, the following assay method is used. 50 µl of a p-nitrophenylsulfate solution (1 mg/ml in 50 mM Tris-HCl, pH7.5), 50 µl of a sample, and 100 µl of 50 mM Tris-HCl, pH 7.5, are mixed and incubated for 30 minutes at 37°C. If the activity is weak, the incubation time is prolonged up to 18 hours. The liberated p-nitrophenol is determined spectrophotometrically at 415 nm. From standard curves of p-nitrophenol and protein concentrations, the unit or specific activity per mg of the enzyme is calculated. The protein concentration is determined by measuring the absorption at 280 nm throughout purification and, in case of homogeneous protein, by the Bradford method [Bradford, M., et al., Anal. Biochem., 1976, 72:248-254] using bovine serum albumin as the standard protein. A unit of sulfatase activity is defined as the amount of enzyme which can hydrolyze one nanomole of p-nitrophenyl sulfate to p-nitrophenol in one minute at 37°C at pH 7.5.
(§1) (a) Optimum pH. The enzyme solution (0.6 u in 50 µl of 50 mM Tris-HCl, pH 7.5) was mixed with 100 µl each of the following buffers: 500 mM sodium acetate (pH 4.0-5.5), 500 mM Tris-maleate (pH 5.5-7.7), 500 mM Tris-HCl (pH 7.5-9.0), and 500 mM glycine-NaOH (pH 9.0-10.0). The substrate, p-nitrophenylsulfate, was similarly dissolved in each of the above buffers (1 mg/ml). A sample (150 µl) from the enzyme solution is mixed with the substrate (50 µl) in the same buffer, and the mixture was incubated for 30 minutes at 37°C. The enzyme activity in each buffer was determined spectrophotometrically by UV at 415 nm. The optimal pH of the enzyme was thus determined to be about 9.0 (Fig. 1A). (b) pH stability. The stock enzyme solution was dialyzed against water to remove salts. The enzyme solution was adjusted to 0.6 u/10 µl with Tris-HCl buffer (pH 7.5). This solution (10 µl) was mixed with 40 µl each of the buffer listed in (a) and incubated for 30 minutes at 30°C. The enzyme sample (50 µl) was mixed with 100 µl of 500 mM Tris-HCl (pH 9.0) and 50 µl of substrate in water (1mg/ml), and the mixture was incubated at 37°C for 30 minutes to determine the residual enzyme activity. […] (c) Optimum temperature. Enzyme (0.6 u) in 150 µl of 50 mM Tris-HCl (pH 9.0) were incubated with p-nitrophenylsulfate (1 mg/ml, 50 µl) in the same buffer (pH 9.0) for 30 minutes at various temperatures (200 µl each). […] (d) Temperature stability. Enzyme preparations (0.6 u) in 50 mM Tris-HCl (150 µl, pH 9.0) were incubated for 15 minutes at various temperatures and then cooled in an ice bath. p-Nitrophenylsulfate (1 mg/ml, 50 µl) was added to the enzyme solution, and the mixture was incubated for 30 minutes at 37°C. The enzyme was stable below 30°C at pH 9.0 (Fig. 2B). (e) Effect of ions. Enzyme (0.6 u), p-nitrophenyl sulfate 4 mM, and ion 1 mM were dissolved in 200 µl of Tris-HCl (50 mM). The solution was incubated for 30 minutes at 37°C. p-Nitrophenol released was spectrophotometrically assayed by UV at 415 nm. […]

| Molecule | Inhibit. (%) | Rel. Activity (%) |
| --- | --- | --- |
| [Cl][Hg][Cl] [HgCl2] | 100% | 0% |
| BaCl2 | 17% | 83% |
| ZnCl2 | 82% | 18% |
| CoCl2 | 66% | 34% |
| FeCl3 | 49% | 51% |
| FeCl2 | 88% | 12% |
| MnCl2 | 66% | 34% |
| CuCl2 | 44% | 56% |
| NiCl2 | 41% | 59% |
| AlCl3 | 33% | 67% |
| CaCl2 | – | 213% |

test system: not given; assay: not given; settings: background statement; compound disclosed in Japanese Kokai 88/192,793; cited from earlier work

| Molecule | cytotoxicity relative to etoposide |
| --- | --- |
| COc1cc([C@@H]2c3cc4c(cc3[C@@H](O[C@@H]3O[C@@H]5CO[C@@H](C)O[C@H]5[C@H](O)[C@H]3O)[C@H]3COC(=O)[C@H]23)OCO4)cc(OC)c1OS(=O)(=O)O [(III), etoposide 4'-sulfate] | much less cytotoxic than etoposide itself |

test system: Es-2 sulfatase; assay: Effect of salts on sulfatase activity (protocol as for ions); assay type: biochemical, Streptomyces sp. T109-3; settings: 5 mM of a salt
Procedure: as §1
(g) Effect of salts. The protocol used in (e) was followed, except that 5 mM of a salt was used instead of 1 mM of a metal ion. […]

| Molecule | inhibition of sulfatase activity (in words) |
| --- | --- |
| K2HPO4 | strongly inhibited |

same assay, conditions: 5 mM of a salt; p-nitrophenyl sulfate 4 mM; 30 minutes at 37°C

| Molecule | % Inhibit. |
| --- | --- |
| K2HPO4 | 100% |
| (NH4)2SO4 | 44% |
| NaCl | 58% |
| K2SO4 | 36% |

test system: Es-2 sulfatase; assay: EDTA treatment of the enzyme and recovery of activity by Ca2+; assay type: biochemical, Streptomyces sp. T109-3; settings: 10 mM of EDTA followed by dialysis against water
Procedure: (a) Optimum pH. The enzyme solution (0.6 u in 50 µl of 50 mM Tris-HCl, pH 7.5) was mixed with 100 µl each of the following buffers: 500 mM sodium acetate (pH 4.0-5.5), 500 mM Tris-maleate (pH 5.5-7.7), 500 mM Tris-HCl (pH 7.5-9.0), and 500 mM glycine-NaOH (pH 9.0-10.0). The substrate, p-nitrophenylsulfate, was similarly dissolved in each of the above buffers (1 mg/ml). A sample (150 µl) from the enzyme solution is mixed with the substrate (50 µl) in the same buffer, and the mixture was incubated for 30 minutes at 37°C. The enzyme activity in each buffer was determined spectrophotometrically by UV at 415 nm. The optimal pH of the enzyme was thus determined to be about 9.0 (Fig. 1A). (b) pH stability. The stock enzyme solution was dialyzed against water to remove salts. The enzyme solution was adjusted to 0.6 u/10 µl with Tris-HCl buffer (pH 7.5). This solution (10 µl) was mixed with 40 µl each of the buffer listed in (a) and incubated for 30 minutes at 30°C. The enzyme sample (50 µl) was mixed with 100 µl of 500 mM Tris-HCl (pH 9.0) and 50 µl of substrate in water (1mg/ml), and the mixture was incubated at 37°C for 30 minutes to determine the residual enzyme activity. […] (c) Optimum temperature. Enzyme (0.6 u) in 150 µl of 50 mM Tris-HCl (pH 9.0) were incubated with p-nitrophenylsulfate (1 mg/ml, 50 µl) in the same buffer (pH 9.0) for 30 minutes at various temperatures (200 µl each). […]

| Molecule | sulfatase activity after treatment of the enzyme with EDTA |
| --- | --- |
| O=C(O)CN(CCN(CC(=O)O)CC(=O)O)CC(=O)O [EDTA] | the sulfatase activity disappeared |
